The text below walks through data of ChEMBL document CHEMBL3046070, “New N-arylamino biquinoline derivatives: microwave-assisted synthesis and their antimicrobial activities” (2013).

What all share (type): functional
For one experiment, the system named is Streptococcus pneumoniae. The experiment is described as follows: Antibacterial activity against Streptococcus pneumoniae MTCC 1936 assessed as growth inhibition after overnight incubation by NCCLS broth microdilution method.
The test system of the next experiment is Vibrio cholerae. As to the kind of experiment: Antibacterial activity against Vibrio cholerae MTCC 3906 assessed as growth inhibition after overnight incubation by NCCLS broth microdilution method. In general terms: Dilution methods test growth across graded concentrations, often in twofold steps.
Another experiment deals with Aspergillus fumigatus. The experiment is described as follows: Antifungal activity against Aspergillus fumigatus MTCC 3008 assessed as growth inhibition after overnight incubation by NCCLS broth microdilution method.
A further experiment concerns Candida albicans. The experiment is described as follows: Antifungal activity against Candida albicans MTCC 227 assessed as growth inhibition after overnight incubation by NCCLS broth microdilution method.
The test system of the next experiment is Escherichia coli. As to the kind of experiment: Antibacterial activity against Escherichia coli MTCC 443 assessed as growth inhibition after overnight incubation by NCCLS broth microdilution method.
In another experiment the test system is Bacillus subtilis. The experiment is described as follows: Antibacterial activity against Bacillus subtilis MTCC 441 assessed as growth inhibition after overnight incubation by NCCLS broth microdilution method.
Another experiment deals with Clostridium tetani. The experiment is described as follows: Antibacterial activity against Clostridium tetani MTCC 449 assessed as growth inhibition after overnight incubation by NCCLS broth microdilution method.
Another experiment has as its system Salmonella typhi. The experiment is described as follows: Antibacterial activity against Salmonella enterica subsp. enterica serovar Typhi MTCC 98 assessed as growth inhibition after overnight incubation by NCCLS broth microdilution method.

≈ marks a conversion by molar mass, not a printed value.

For the compound `CCOC(=O)C1=C(N)N(Nc2ccc(F)cc2)C2=C(C(=O)CC(C)(C)C2)C1c1cc2cc(OC)ccc2nc1Cl` (stereo not given), the MIC in the experiment on Streptococcus pneumoniae was 250 µg/mL (≈ 442 µM); in the experiment with Vibrio cholerae, 250 µg/mL (≈ 442 µM); in the experiment on Aspergillus fumigatus, greater than 1000 µg/mL; with Candida albicans, 1000 µg/mL (≈ 1770 µM); in the experiment with Escherichia coli it was 125 µg/mL (≈ 221 µM); in the experiment with Bacillus subtilis, 200 µg/mL (≈ 354 µM). In addition, the MIC with Clostridium tetani stood at 250 µg/mL (≈ 442 µM); in the experiment on Salmonella typhi, 200 µg/mL (≈ 354 µM).
As for `CCOC(=O)C1=C(N)N(Nc2ccc(Cl)cc2)C2=C(C(=O)CC(C)(C)C2)C1c1cc2cc(C)ccc2nc1Cl` (stereo not given), the MIC with Streptococcus pneumoniae was 500 µg/mL (≈ 884 µM); in the experiment on Vibrio cholerae, 250 µg/mL (≈ 442 µM); in the experiment on Aspergillus fumigatus, greater than 1000 µg/mL; with Candida albicans, 500 µg/mL (≈ 884 µM); with Escherichia coli, 62.5 µg/mL (≈ 111 µM); with Bacillus subtilis, 500 µg/mL (≈ 884 µM). Also, the MIC with Clostridium tetani and in the experiment with Salmonella typhi was 200 µg/mL (≈ 354 µM) in each case.
In the case of `CCOC(=O)C1=C(N)N(Nc2ccccc2)C2=C(C(=O)CC(C)(C)C2)C1c1cc2cc(C)ccc2nc1Cl` (stereo not given), the MIC in the experiment on Streptococcus pneumoniae is 250 µg/mL (≈ 471 µM); in the experiment with Vibrio cholerae, 100 µg/mL (≈ 188 µM); with Aspergillus fumigatus it was greater than 1000 µg/mL; in the experiment with Candida albicans, 500 µg/mL (≈ 942 µM); with Escherichia coli, 100 µg/mL (≈ 188 µM); in the experiment on Bacillus subtilis, 500 µg/mL (≈ 942 µM). The MIC came to 500 µg/mL (≈ 942 µM) in the experiment with Clostridium tetani and 250 µg/mL (≈ 471 µM) in the experiment on Salmonella typhi.
Regarding `CCOC(=O)C1=C(N)N(Nc2ccc(F)cc2)C2=C(C(=O)CC(C)(C)C2)C1c1cc2ccccc2nc1Cl` (stereo not given), the MIC worked out at 200 µg/mL (≈ 374 µM) in the experiment with Streptococcus pneumoniae; 200 µg/mL (≈ 374 µM) in the experiment with Vibrio cholerae; 500 µg/mL (≈ 935 µM) in the experiment with Aspergillus fumigatus; 250 µg/mL (≈ 467 µM) in the experiment on Candida albicans; 100 µg/mL (≈ 187 µM) with Escherichia coli; 200 µg/mL (≈ 374 µM) with Bacillus subtilis. Further, the MIC in the experiment on Clostridium tetani amounted to 200 µg/mL (≈ 374 µM); with Salmonella typhi, 100 µg/mL (≈ 187 µM).
For `CCOC(=O)C1=C(N)N(Nc2ccc(Cl)cc2)C2=C(C(=O)CC(C)(C)C2)C1c1cc2cc(Cl)ccc2nc1Cl` (stereo not given), the MIC is 500 µg/mL (≈ 853 µM) in the experiment with Streptococcus pneumoniae; 250 µg/mL (≈ 427 µM) in the experiment with Vibrio cholerae; 500 µg/mL (≈ 853 µM) in the experiment with Aspergillus fumigatus; 1000 µg/mL (≈ 1710 µM) in the experiment on Candida albicans; 250 µg/mL (≈ 427 µM) with Escherichia coli; 500 µg/mL (≈ 853 µM) with Bacillus subtilis. In addition, the MIC in the experiment with Clostridium tetani and with Salmonella typhi was 250 µg/mL (≈ 427 µM) each time.

The MIC is the smallest concentration in the dilution series that meets the test's criterion for growth inhibition.
